According to ChEMBL document CHEMBL1240419, “Synthesis and antibacterial activity of 3-O-carbamoyl derivatives of 6,11-di-O-methylerythromycin A: a novel class of acylides” (2010):
In brackets after ≈: the same amount, converted by molar mass.

Tests used:
Format in all cases: functional
Streptococcus pneumoniae [1] = assay: Antibacterial activity against erythromycin-susceptible Streptococcus pneumoniae ATCC 49619 by broth microdilution method
Haemophilus influenzae [2] = assay: Antibacterial activity against ampicillin-susceptible Haemophilus influenzae ATCC 49247 by broth microdilution method
Staphylococcus aureus [3] = assay: Antibacterial activity against erythromycin-susceptible Staphylococcus aureus ATCC 25923 by broth microdilution method
Staphylococcus aureus [4] = assay: Antibacterial activity against erythromycin-resistant, methicillin-susceptible Staphylococcus aureus A265 by broth microdilution method
Staphylococcus aureus [5] = assay: Antibacterial activity against erythromycin, methicillin-resistant Staphylococcus aureus A333 by broth microdilution method
Haemophilus influenzae [6] = assay: Antibacterial activity against ampicillin-resistant Haemophilus influenzae 3300 by broth microdilution method
Streptococcus pneumoniae [7] = assay: Antibacterial activity against erythromycin-resistant Streptococcus pneumoniae 3469 by broth microdilution method

SMILES	MIC (Streptococcus pneumoniae [1]) [µg/mL]	MIC (Haemophilus influenzae [2]) [µg/mL]	MIC (Staphylococcus aureus [3]) [µg/mL]	MIC (Staphylococcus aureus [4]) [µg/mL]	MIC (Staphylococcus aureus [5]) [µg/mL]	MIC (Haemophilus influenzae [6]) [µg/mL]	MIC (Streptococcus pneumoniae [7]) [µg/mL]
CC[C@H]1OC(=O)[C@H](C)[C@@H](OC(=O)NCCc2ccccc2Cl)[C@H](C)[C@@H](O[C@@H]2O[C@H](C)C[C@H](N(C)C)[C@H]2O)[C@](C)(OC)C[C@@H](C)C(=O)[C@@H](C)[C@@H](OC)[C@]1(C)O	0.125 (≈ 0.159 µM)	8 (≈ 10.2 µM)	4 (≈ 5.09 µM)	1 (≈ 1.27 µM)	> 64	16 (≈ 20.4 µM)	0.125 (≈ 0.159 µM)
CC[C@H]1OC(=O)[C@H](C)[C@@H](OC(=O)NCCc2ccccc2Br)[C@H](C)[C@@H](O[C@@H]2O[C@H](C)C[C@H](N(C)C)[C@H]2O)[C@](C)(OC)C[C@@H](C)C(=O)[C@@H](C)[C@@H](OC)[C@]1(C)O	0.125 (≈ 0.151 µM)	8 (≈ 9.64 µM)	4 (≈ 4.82 µM)	4 (≈ 4.82 µM)	64 (≈ 77.1 µM)	4 (≈ 4.82 µM)	8 (≈ 9.64 µM)
CC[C@H]1OC(=O)[C@H](C)[C@@H](O[C@H]2C[C@@](C)(OC)[C@@H](O)[C@H](C)O2)[C@H](C)[C@@H](O[C@@H]2O[C@H](C)C[C@H](N(C)C)[C@H]2O)[C@](C)(O)C[C@@H](C)CN(C)[C@H](C)[C@@H](O)[C@]1(C)O [AZITHROMYCIN]	0.5 (≈ 0.668 µM)	4 (≈ 5.34 µM)	0.5 (≈ 0.668 µM)	8 (≈ 10.7 µM)	> 64	4 (≈ 5.34 µM)	4 (≈ 5.34 µM)
CC[C@H]1OC(=O)[C@H](C)[C@@H](O[C@H]2C[C@@](C)(OC)[C@@H](O)[C@H](C)O2)[C@H](C)[C@@H](O[C@@H]2O[C@H](C)C[C@H](N(C)C)[C@H]2O)[C@](C)(OC)C[C@@H](C)C(=O)[C@H](C)[C@@H](O)[C@]1(C)O [CLARITHROMYCIN]	0.25 (≈ 0.334 µM)	8 (≈ 10.7 µM)	0.25 (≈ 0.334 µM)	4 (≈ 5.35 µM)	> 64	8 (≈ 10.7 µM)	2 (≈ 2.67 µM)
CC[C@H]1OC(=O)[C@H](C)[C@@H](O[C@H]2C[C@@](C)(OC)[C@@H](O)[C@H](C)O2)[C@H](C)[C@@H](O[C@@H]2O[C@H](C)C[C@H](N(C)C)[C@H]2O)[C@](C)(O)C[C@@H](C)C(=O)[C@H](C)[C@@H](O)[C@]1(C)O [ERYTHROMYCIN]	0.25 (≈ 0.341 µM)	16 (≈ 21.8 µM)	0.125 (≈ 0.17 µM)	2 (≈ 2.73 µM)	> 64	16 (≈ 21.8 µM)	1 (≈ 1.36 µM)
